Assays:
[1] = biological target: T1, Alpha-1B adrenergic receptor (Rattus norvegicus, UniProt P15823); assay: DRUGMATRIX: Alpha-1B adrenergic receptor radioligand binding (ligand: prazosin); format: cell membranes, Wistar, Liver, Membrane; conditions: Not Active = under 50% inhibition at 10 µM
T1 sequence (P15823 whole entry): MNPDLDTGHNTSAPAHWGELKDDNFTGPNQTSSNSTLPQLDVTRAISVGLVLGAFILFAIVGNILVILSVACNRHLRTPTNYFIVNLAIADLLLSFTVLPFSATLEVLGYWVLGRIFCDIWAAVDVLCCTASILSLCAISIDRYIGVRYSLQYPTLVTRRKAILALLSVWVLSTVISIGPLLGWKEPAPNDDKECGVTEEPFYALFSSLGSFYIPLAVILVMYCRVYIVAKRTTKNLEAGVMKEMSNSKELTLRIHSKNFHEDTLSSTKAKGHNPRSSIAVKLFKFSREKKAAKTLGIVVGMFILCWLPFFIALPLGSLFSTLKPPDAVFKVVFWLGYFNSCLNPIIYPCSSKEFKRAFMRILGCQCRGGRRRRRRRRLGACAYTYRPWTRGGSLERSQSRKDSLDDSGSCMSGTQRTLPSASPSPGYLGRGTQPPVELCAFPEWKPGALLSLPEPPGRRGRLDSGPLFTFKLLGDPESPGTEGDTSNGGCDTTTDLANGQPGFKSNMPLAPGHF

[2] = biological target: Histamine H2 receptor (Homo sapiens, UniProt P25021); format: cell membranes, CHO-K1, Membrane; further: in other assays of this panel Not Active means under 50% inhibition at 10 µM
[3] = biological target: Platelet-activating factor receptor (Homo sapiens, UniProt P25105); format: tissue-based; further: in other assays of this panel Not Active means under 50% inhibition at 10 µM
[4] = biological target: Mitogen-activated protein kinase 14 (Homo sapiens, UniProt Q16539); parameters: species or system Escherichia coli;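 further: inhibition of p38alpha enzyme activity in a biochemical kinase assay, with myelin basic protein serving as substrate; in other assays of this panel Not Active means under 50% inhibition at 10 µM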
[5] = biological target: Epidermal growth factor receptor (Homo sapiens, UniProt P00533); assay: DRUGMATRIX: Protein Tyrosine Kinase, EGF Receptor enzyme inhibition (substrate: Poly(Glu:Tyr)); format: cell-based, Insect cells; conditions: insect cells; Not Active = under 50% inhibition at 10 µM

Sequence of Platelet-activating factor receptor (P25105 whole entry): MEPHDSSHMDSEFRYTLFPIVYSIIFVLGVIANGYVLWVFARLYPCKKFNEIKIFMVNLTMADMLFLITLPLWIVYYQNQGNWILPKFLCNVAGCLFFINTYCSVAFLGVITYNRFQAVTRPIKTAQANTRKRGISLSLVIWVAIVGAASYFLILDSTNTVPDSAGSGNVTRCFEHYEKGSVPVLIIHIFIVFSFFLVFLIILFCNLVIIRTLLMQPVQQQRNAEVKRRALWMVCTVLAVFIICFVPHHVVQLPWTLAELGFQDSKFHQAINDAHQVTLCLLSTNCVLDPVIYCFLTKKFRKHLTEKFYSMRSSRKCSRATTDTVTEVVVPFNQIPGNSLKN
Sequence of Mitogen-activated protein kinase 14 (Q16539 whole entry): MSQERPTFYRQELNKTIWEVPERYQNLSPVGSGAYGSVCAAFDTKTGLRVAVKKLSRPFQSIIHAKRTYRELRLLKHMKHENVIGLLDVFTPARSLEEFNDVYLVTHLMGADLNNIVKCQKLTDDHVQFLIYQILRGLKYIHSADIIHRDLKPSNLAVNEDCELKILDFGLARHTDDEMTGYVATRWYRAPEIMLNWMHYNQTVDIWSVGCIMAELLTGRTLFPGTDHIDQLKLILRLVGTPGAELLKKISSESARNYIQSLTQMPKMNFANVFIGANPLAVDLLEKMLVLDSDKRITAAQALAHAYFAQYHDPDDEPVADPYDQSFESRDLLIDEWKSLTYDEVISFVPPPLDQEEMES
Sequence of Histamine H2 receptor (P25021 whole entry): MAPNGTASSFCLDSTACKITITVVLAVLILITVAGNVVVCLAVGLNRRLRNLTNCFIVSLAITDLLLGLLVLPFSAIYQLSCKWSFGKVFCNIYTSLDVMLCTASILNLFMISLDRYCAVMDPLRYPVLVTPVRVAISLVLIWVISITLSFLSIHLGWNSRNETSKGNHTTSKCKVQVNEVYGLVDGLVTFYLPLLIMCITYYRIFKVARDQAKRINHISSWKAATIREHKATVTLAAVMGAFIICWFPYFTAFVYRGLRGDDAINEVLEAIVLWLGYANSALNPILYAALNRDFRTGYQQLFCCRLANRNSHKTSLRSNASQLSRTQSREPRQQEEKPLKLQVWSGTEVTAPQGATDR

Molecule | IC50 [1] | IC50 ([2]; cho-k1) | IC50 [3] | IC50 [4] | IC50 [5] | Ki [1] | Ki ([2]; cho-k1) | Ki [3] | Ki [4] | Ki [5] | IC50 ([2]; read-out: IC50) | Ki ([2]; read-out: Ki)
O=C(O)CO [GLYCOLIC ACID] | Not Active | Not Active | Not Active | Not Active | Not Active |  |  |  |  |  |  | 
O=C(NCCN1CCOCC1)c1ccc(Cl)cc1 [MOCLOBEMIDE] | Not Active | Not Active | Not Active | Not Active | Not Active |  |  |  |  |  |  | 
CARBOXYMETHYLCELLULOSE | Not Active | Not Active | Not Active | Not Active | Not Active | Not Active | Not Active | Not Active | Not Active | Not Active |  | 
NC(N)=Nc1nc(CSCCC(N)=NS(N)(=O)=O)cs1 [FAMOTIDINE] | Not Active |  | Not Active | Not Active | Not Active |  |  |  |  |  | 0.042 µM | 0.041 µM
COc1ccc(C[C@H](N)C(=O)N[C@H]2[C@@H](O)[C@H](n3cnc4c(N(C)C)ncnc43)O[C@@H]2CO)cc1 [PUROMYCIN] | Not Active | Not Active | Not Active | Not Active | Not Active |  |  |  |  |  |  | 
